Assay results taken from patent publication US7776913B2, “Carnitines for treating or preventing disorders caused by andropause” (Sigma-Tau Industrie Farmaceutiche Riunite S.p.A., priority 2002, dated 2010).

What was measured:
Format in all cases: in vivo, human
[1] = test system: Patients aged over 60 years with lowered blood concentrations of free and total testosterone; assay: Fatigue scale
Excerpt: (§1) Reported here below is a clinical trial conducted in order to evaluate the activity of the combination according to the association in the treatment of the symptoms of male ageing.
(§2) Patients aged over 60 years with lowered blood concentrations of free and total testosterone (The Aging Male 4: 151-162, 2001) and complaining of symptoms figuring in the working definition of andropause proposed by the International Society for the Study of the Aging Male (I.S.S.A.M.) (The Aging Male 4: 151-162, 2001): reduced libido or sex drive and erectile function, depressed mood, difficulty concentrating, irritability and fatigue.
(§3) The above-mentioned compounds were presented to the patients in anonymous containers and administered for 6 months.
(§4) Medical history-taking and physical examinations were done for all patients. The following data were also collected prior to the start of treatment, after 1, 3 and 6 months of treatment: • 1. Total blood prostate-specific antigen (PSA) (ng/ml) as measured with the automatic test and monoclonal antibodies [Rigatti P., Scattoni V.: PSA: Antigene prostatico specifico. Edizioni Medico Scientifiche (EDIMES) Pavia, 1997]. • 2. Prostate volume (cm^3) as measured by suprapubic ultrasonography and calculated by means of the three diameters rule [Rigatti P. Scattoni V.: PSA: Antigene prostatico specifico. Edizioni Medico Scientifiche (EDIMES) Pavia, 1997]. • 3. Peak systolic volume (PSV) (cm/sec), end-diastolic velocity (EDV) (cm/sec), and Resistance Index (RI) (%) of the penile arteries (right and left cavernous e dorsal) as measured by means of penile basal and dynamic colour Doppler ultrasonography. RI was calculated as follows: (PSV-EDV/EDV)×100 (Urology 1997: 49: 822-830). • 4. Duration of full erections (in minutes) in the course of a recording period of three nights performed with Rigiscan. […] Free and total blood testosterone, LH and prolactin levels (The Aging Male 4: 151-162, 2001). • 6. Sexual function was checked by means of semistructured interviews and administration of the International Index of Erectile Function (IIEF-15) (Urology 1997: 49: 822-830). A score was calculated for each patient. • 7. Depression was quantified by means of the Hamilton Depression Scale questionnaire (DMS III) (Cancer 94: 2481-2489, 2002). A score was calculated for each patient. • 8. The subjective sensation of fatigue was calculated using the fatigue scale (Lison L.: Statistica applicata alla biologia sperimentale. Milano: Casa Editrice Ambrosiana, 1972). A score was calculated for each patient. • 9. Side effects.
(§5) Blood concentrations of PSA, free and total testosterone, prolactin LH, prostate volume, PSV, EDV, RI, full erection duration, IIEF-15, DMS III, and fatigue scale scores were compared between and within groups by means of factorial analysis of variance for randomised blocks (1 patient=1 block). Comparison of the mean values was done on the raw data with the exclusion of RI which used data subjected to angular transformation (sin^−1 √P/100) for the comparisons. Side effects were compared using the chi-square etst (Lison L.: Statistica applicata alla biologia sperimentale. Milano: Casa Editrice Ambrosiana, 1972).

[2] = test system: Patients aged over 60 years with lowered blood concentrations of free and total testosterone; assay: Blood prolactin levels; design: unit not given here; conditions: mean ± SD
Excerpt: as §1, §2, §3
Medical history-taking and physical examinations were done for all patients. The following data were also collected prior to the start of treatment, after 1, 3 and 6 months of treatment: • 1. Total blood prostate-specific antigen (PSA) (ng/ml) as measured with the automatic test and monoclonal antibodies [Rigatti P., Scattoni V.: PSA: Antigene prostatico specifico. Edizioni Medico Scientifiche (EDIMES) Pavia, 1997]. • 2. Prostate volume (cm^3) as measured by suprapubic ultrasonography and calculated by means of the three diameters rule [Rigatti P. Scattoni V.: PSA: Antigene prostatico specifico. […] Peak systolic volume (PSV) (cm/sec), end-diastolic velocity (EDV) (cm/sec), and Resistance Index (RI) (%) of the penile arteries (right and left cavernous e dorsal) as measured by means of penile basal and dynamic colour Doppler ultrasonography. RI was calculated as follows: (PSV-EDV/EDV)×100 (Urology 1997: 49: 822-830). • 4. […] A score was calculated for each patient. • 7. Depression was quantified by means of the Hamilton Depression Scale questionnaire (DMS III) (Cancer 94: 2481-2489, 2002). A score was calculated for each patient. • 8. The subjective sensation of fatigue was calculated using the fatigue scale (Lison L.: Statistica applicata alla biologia sperimentale. Milano: Casa Editrice Ambrosiana, 1972). A score was calculated for each patient. • 9. […]

[3] = test system: Patients aged over 60 years with lowered blood concentrations of free and total testosterone; assay: Hamilton Depression Scale questionnaire (DMS III); conditions: for Hamilton Depression Scale questionnaire (DMS III) score: mean ± SD
Excerpt: as §1, §2, §3, §4, §5

[4] = test system: Patients aged over 60 years with lowered blood concentrations of free and total testosterone; assay: Blood levels of total testosterone; conditions: for Total testosterone: blood, mean ± SD
Excerpt: as §1, §2, §3
as §4, with “effects. […]” for “effects.”

[5] = test system: Patients aged over 60 years with lowered blood concentrations of free and total testosterone; assay: Clinical trial overall: andropause symptoms and pathological changes of the cervico-urethral district; conditions: unlike placebo
Excerpt: as §1
Patients aged over 60 years with lowered blood concentrations of free and total testosterone (The Aging Male 4: 151-162, 2001) and complaining of symptoms figuring in the working definition of andropause proposed by the International Society for the Study of the Aging Male (I.S.S.A.M.) (The Aging Male 4: 151-162, 2001): reduced libido or sex drive and erectile function, depressed mood, difficulty concentrating, irritability and fatigue. […]
Medical history-taking and physical examinations were done for all patients. […] Total blood prostate-specific antigen (PSA) (ng/ml) as measured with the automatic test and monoclonal antibodies [Rigatti P., Scattoni V.: PSA: Antigene prostatico specifico. […] Prostate volume (cm^3) as measured by suprapubic ultrasonography and calculated by means of the three diameters rule [Rigatti P. Scattoni V.: PSA: Antigene prostatico specifico. […] Peak systolic volume (PSV) (cm/sec), end-diastolic velocity (EDV) (cm/sec), and Resistance Index (RI) (%) of the penile arteries (right and left cavernous e dorsal) as measured by means of penile basal and dynamic colour Doppler ultrasonography. RI was calculated as follows: (PSV-EDV/EDV)×100 (Urology 1997: 49: 822-830). • 4. […]

[6] = test system: Patients aged over 60 years with lowered blood concentrations of free and total testosterone; assay: International Index of Erectile Function questionnaire (IIEF-15); conditions: for IIEF-15 Erectile Function section score / IIEF-15 General Satisfaction section score (Table 18 title) / IIEF-15 Intercourse Satisfaction section score / IIEF-15 Orgasmic Function section score (Table 17 title) / IIEF-15 Sexual Desire section score: mean ± SD
Excerpt: as §1, §2, §3, §4, §5

Question: Which Fatigue scale score ([1]; before therapy, mean ± SD) does the source give for testosterone undecaonate here?
Answer: 2.8 ± 1.3

Question: And the “Activity in increasing the sensation of general well-being, comparison” value ([1]; conclusion from Table 20)?
Answer: significantly more active than placebo

Question: And the Prolactin ([2]; 3 months of therapy)?
Answer: 7.4 ± 1.7

Question: And the Prolactin ([2]; 6 months of therapy)?
Answer: 7.3 ± 1.8

Question: And the Prolactin ([2]; before therapy)?
Answer: 7.7 ± 1.6

Question: And the “Hamilton Depression Scale questionnaire (DMS III) score” value ([3]; 3 months of therapy)?
Answer: 5.8 ± 0.7

Question: What about the “Hamilton Depression Scale questionnaire (DMS III) score” value ([3]; 6 months of therapy) of the same substance?
Answer: 5.1 ± 1.3

Question: What about the “Change in DMS III scores (in words)” value ([3]; at 3 months, F=4.07, P<0.05) of the same substance?
Answer: significant decrease

Question: What about the “Significant decrease in DMS III scores (in words)” value ([3]; at 6 months, F=2.5, P=n.s.) of the same substance?
Answer: but not at 6 months

Question: What about the “DMS III score compared between groups” value ([3]; at 6 months, comparison with placebo (and testosterone)) of the same substance?
Answer: No significant difference

Question: And the “Hamilton Depression Scale questionnaire (DMS III) score” value ([3]; before therapy)?
Answer: 6.6 ± 1.0

Question: What about the “Change in total serum testosterone (in words)” value ([4]; at either 3 or 6 months) of the same substance?
Answer: no significant increases

Question: What about the Total testosterone ([4]; 3 months of therapy) of the same substance?
Answer: 15.5 ± 3.9 nmol/L

Question: What about the Total testosterone ([4]; 6 months of therapy) of the same substance?
Answer: 15.8 ± 2.6 nmol/L

Question: And the Total testosterone ([4]; before therapy)?
Answer: 14.5 ± 2.1 nmol/L

Question: And the “Effect on the symptoms of andropause” value [5]?
Answer: capable of attenuating

Question: What about the “IIEF-15 Erectile Function section score” value ([6]; 3 months of therapy) of the same substance?
Answer: 16.7 ± 3.7

Question: And the “IIEF-15 General Satisfaction section score (Table 18 title)” value ([6]; 3 months of therapy)?
Answer: 3.7 ± 1.1

Question: What about the “IIEF-15 Intercourse Satisfaction section score” value ([6]; 3 months of therapy) of the same substance?
Answer: 4.8 ± 0.8

Question: What about the “IIEF-15 Orgasmic Function section score (Table 17 title)” value (shortened to “IIEF-15 Orgasmic Function section score”) ([6]; 3 months of therapy) of the same substance?
Answer: 3.9 ± 0.9

Question: And the “IIEF-15 Sexual Desire section score” value ([6]; 3 months of therapy)?
Answer: 5.7 ± 0.8

Question: What about the “IIEF-15 Erectile Function section score” value ([6]; 6 months of therapy) of the same substance?
Answer: 20.2 ± 5.3

Question: And the “IIEF-15 General Satisfaction section score (Table 18 title)” value ([6]; 6 months of therapy)?
Answer: 4.4 ± 2.2

Question: What about the “IIEF-15 Intercourse Satisfaction section score” value ([6]; 6 months of therapy) of the same substance?
Answer: 5.8 ± 1.9

Question: What about the “IIEF-15 Orgasmic Function section score” value ([6]; 6 months of therapy) of the same substance?
Answer: 4.7 ± 1.8

Question: What about the “IIEF-15 Sexual Desire section score” value ([6]; 6 months of therapy) of the same substance?
Answer: 7.1 ± 0.9

Question: What about the “Intercourse satisfaction (in words)” value ([6]; IIEF-15, Table 15) of the same substance?
Answer: significantly increased

Question: What about the “Sexual desire (in words)” value ([6]; IIEF-15, Table 16) of the same substance?
Answer: significantly increased

Question: What about the “Change in IIEF-15 Orgasmic Function scores (Table 18)” value ([6]; at 3 months, F=12.6, P<0.01) of the same substance?
Answer: significantly increased

Question: What about the “IIEF-15 Erectile Function section score” value ([6]; before therapy) of the same substance?
Answer: 13.8 ± 2.7

Question: And the “IIEF-15 General Satisfaction section score (Table 18 title)” value ([6]; before therapy)?
Answer: 3.2 ± 0.6

Question: And the “IIEF-15 Intercourse Satisfaction section score” value ([6]; before therapy)?
Answer: 4.1 ± 0.8

Question: And the “IIEF-15 Orgasmic Function section score” value ([6]; before therapy)?
Answer: 3.2 ± 1.2

Question: And the “IIEF-15 Sexual Desire section score” value ([6]; before therapy)?
Answer: 4.3 ± 1.0

Question: What about the “Change in IIEF-15 Erectile Function scores (in words)” value ([6]; both at 3 months and 6 months) of the same substance?
Answer: significant increase

Question: What about the “Erectile activity (in words)” value ([6]; conclusion from Table 14) of the same substance?
Answer: significantly increase

Question: And the “Change in IIEF-15 General Satisfaction scores (text on Table 17)” value ([6]; time not stated)?
Answer: failed to induce any significant changes
